Data published in DBAASP.
In brackets after ≈: the same amount, converted by molar mass.

Columns and labels:
Experiment in all cases: ≥ marks a high value that may be exact or a test limit, other limits are often not marked, values filed in µg/mL are converted to µM
[1] = system: Pseudomonas aeruginosa ATCC 9027
[2] = system: Staphylococcus aureus ATCC 6538
[3] = system: Bacillus cereus
[4] = system: Escherichia coli
[5] = system: Staphylococcus aureus
[6] = system: Bacillus subtilis
[7] = system: Candida albicans ATCC 2002
[8] = system: Escherichia coli ATCC 25922
[9] = system: Staphylococcus aureus ATCC 25923
[10] = system: Enterococcus faecalis ATCC 29212
[11] = system: Pseudomonas aeruginosa ATCC 27853
[12] = system: Staphylococcus aureus ATCC 29213

CC(C)C[C@H](NC(=O)[C@H](CCCCN)NC(=O)[C@H](CCCCN)NC(=O)[C@H](CC(C)C)NC(=O)[C@H](C)NC(=O)[C@H](CCCCN)NC(=O)[C@H](CC(C)C)NC(=O)[C@H](C)NC(=O)[C@H](CCCCN)NC(=O)[C@H](CCCCN)NC(=O)[C@H](C)NC(=O)[C@@H](N)Cc1ccccc1)C(N)=O [FAKKALKALKKL]
MIC [1]: 73.6 µM (≈ 99.9 µg/mL)
MIC [2]: 147 µM (≈ 200 µg/mL)

CC(C)C[C@H](NC(=O)[C@H](CC(C)C)NC(=O)[C@H](C)NC(=O)[C@H](CCCCN)NC(=O)[C@H](C)NC(=O)[C@H](CC(C)C)NC(=O)[C@H](CCCCN)NC(=O)[C@H](CCCCN)NC(=O)[C@H](C)NC(=O)[C@@H](N)Cc1ccccc1)C(N)=O [FAKKLAKALL]
MIC [1]: 90.7 µM (≈ 99.9 µg/mL)
MIC [2]: 90.7 µM (≈ 99.9 µg/mL)

CC(C)C[C@H](NC(=O)[C@H](CCCCN)NC(=O)[C@H](C)NC(=O)[C@H](CC(C)C)NC(=O)[C@H](CCCCN)NC(=O)[C@H](CC(C)C)NC(=O)[C@H](C)NC(=O)[C@H](CC(C)C)NC(=O)[C@H](CCCCN)NC(=O)[C@H](C)NC(=O)[C@H](CC(C)C)NC(=O)[C@H](CCCCN)NC(=O)[C@H](CCCCN)NC(=O)[C@H](C)NC(=O)[C@@H](N)Cc1ccccc1)C(N)=O [FAKKLAKLALKLAKL]
MIC [1]: 3.02 µM (≈ 5 µg/mL)
MIC [2]: 3.02 µM (≈ 5 µg/mL)

CC(C)C[C@H](NC(=O)[C@H](C)NC(=O)[C@H](CCCCN)NC(=O)[C@H](CCCCN)NC(=O)[C@H](C)NC(=O)[C@H](CC(C)C)NC(=O)[C@H](CCCCN)NC(=O)[C@H](C)NC(=O)[C@H](CC(C)C)NC(=O)[C@H](CC(C)C)NC(=O)[C@H](CCCCN)NC(=O)[C@H](C)NC(=O)[C@@H](N)Cc1ccccc1)C(N)=O [FAKLLAKLAKKAL]
MIC [1]: 35.3 µM (≈ 50 µg/mL)
MIC [2]: 3.53 µM (≈ 5 µg/mL)

CC(C)C[C@H](NC(=O)[C@H](CCCCN)NC(=O)[C@H](CC(C)C)NC(=O)[C@H](CCCCN)NC(=O)[C@H](CC(C)C)NC(=O)[C@H](C)NC(=O)[C@H](CC(C)C)NC(=O)[C@H](C)NC(=O)[C@H](CC(C)C)NC(=O)[C@H](CC(C)C)NC(=O)[C@H](CCCCN)NC(=O)[C@H](C)NC(=O)[C@@H](N)Cc1ccccc1)C(N)=O [FAKLLALALKLKL]
MIC [1]: > 139 µM
MIC [2]: 6.94 µM (≈ 9.99 µg/mL)

CC(C)C[C@H](NC(=O)[C@H](C)NC(=O)[C@H](CCCCN)NC(=O)[C@H](CCCCN)NC(=O)[C@H](CC(C)C)NC(=O)[C@H](C)NC(=O)[C@H](CCCCN)NC(=O)[C@H](CCCCN)NC(=O)[C@H](CC(C)C)NC(=O)[C@H](CCCCN)NC(=O)[C@H](CCCCN)NC(=O)[C@H](CC(C)C)NC(=O)[C@H](C)NC(=O)[C@H](CCCCN)NC(=O)[C@H](CCCCN)NC(=O)[C@H](CC(C)C)NC(=O)[C@H](C)NC(=O)[C@H](CCCCN)NC(=O)[C@H](CC(C)C)NC(=O)[C@H](C)NC(=O)[C@H](CC(C)C)NC(=O)[C@H](C)NC(=O)[C@@H](N)Cc1ccccc1)C(N)=O [FALALKALKKALKKLKKALKKAL]
MIC [1]: 39.4 µM (≈ 100 µg/mL)
MIC [2]: 9.85 µM (≈ 25 µg/mL)

CC(C)C[C@H](NC(=O)[C@H](CCCCN)NC(=O)[C@H](Cc1ccccc1)NC(=O)[C@@H](NC(=O)CNC(=O)CNC(=O)[C@H](CC(C)C)NC(=O)[C@@H](N)Cc1ccccc1)C(C)C)C(=O)N[C@@H](C)C(=O)N[C@@H](CO)C(=O)N[C@@H](CCCCN)C(=O)N[C@H](C(=O)N[C@@H](Cc1ccccc1)C(=O)N1CCC[C@H]1C(=O)N[C@@H](C)C(=O)N[C@H](C(=O)N[C@@H](Cc1ccccc1)C(=O)NCC(=O)N[C@@H](CCCCN)C(=O)N[C@H](C(=O)O)C(C)C)C(C)C)C(C)C [FLGGVFKLASKVFPAVFGKV]
MIC [3]: 15.2 µM (≈ 32 µg/mL)
MIC [4]: 30.3 µM (≈ 64 µg/mL)
MIC [5]: 30.3 µM (≈ 64 µg/mL)

CC(C)C[C@H](NC(=O)[C@@H](N)Cc1ccccc1)C(=O)NCC(=O)N[C@H](C(=O)N[C@H](C(=O)N[C@@H](Cc1ccccc1)C(=O)N[C@@H](CCCCN)C(=O)N[C@@H](CCCCN)C(=O)N[C@@H](C)C(=O)N[C@@H](CO)C(=O)N[C@@H](CCCCN)C(=O)N[C@H](C(=O)N[C@@H](Cc1ccccc1)C(=O)N1CCC[C@H]1C(=O)N[C@@H](CCCCN)C(=O)N[C@H](C(=O)N[C@@H](Cc1ccccc1)C(=O)NCC(=O)N[C@@H](CCCCN)C(=O)N[C@H](C(=O)O)C(C)C)C(C)C)C(C)C)C(C)C)C(C)C [FLGVVFKKASKVFPKVFGKV]
MIC [3]: ≥ 57.5 µM
MIC [4]: 57.5 µM (≈ 128 µg/mL)
MIC [5]: > 57.5 µM

CC(C)C[C@H](NC(=O)[C@H](CCCCN)NC(=O)[C@H](Cc1ccccc1)NC(=O)[C@@H](NC(=O)[C@@H](NC(=O)CNC(=O)[C@H](CC(C)C)NC(=O)[C@@H](N)Cc1ccccc1)C(C)C)C(C)C)C(=O)N[C@@H](C)C(=O)N[C@@H](CO)C(=O)N[C@@H](CCCCN)C(=O)N[C@H](C(=O)N[C@@H](Cc1ccccc1)C(=O)N1CCC[C@H]1C(=O)N[C@@H](C)C(=O)N[C@H](C(=O)N[C@@H](Cc1ccccc1)C(=O)NCC(=O)N[C@@H](CCCCN)C(=O)N[C@H](C(N)=O)C(C)C)C(C)C)C(C)C [FLGVVFKLASKVFPAVFGKV]
MIC [3]: 7.43 µM (≈ 16 µg/mL)
MIC [4]: 29.7 µM (≈ 64 µg/mL)
MIC [5]: 1.86 µM (≈ 4 µg/mL)

CC[C@H](C)[C@H](NC(=O)[C@H](CC(C)C)NC(=O)[C@H](C)NC(=O)[C@H](CC(C)C)NC(=O)[C@H](CC(C)C)NC(=O)CN)C(=O)N[C@@H](CO)C(=O)N[C@@H](Cc1c[nH]c2ccccc12)C(=O)N[C@H](C(=O)N[C@@H](CCCCN)C(=O)N[C@@H](CCCN=C(N)N)C(=O)N[C@@H](CCCCN)C(=O)N[C@@H](CCCN=C(N)N)C(=O)N[C@@H](CCC(N)=O)C(=O)N[C@@H](CCC(N)=O)C(N)=O)[C@@H](C)CC [GLLALISWIKRKRQQ]
MIC [6]: 1.22 µM (≈ 2.2 µg/mL)
MIC [4]: 39.1 µM (≈ 70.8 µg/mL)
MIC [5]: 0.663 µM (≈ 1.2 µg/mL)

CC[C@H](C)[C@H](NC(=O)[C@H](CC(C)C)NC(=O)[C@H](C)NC(=O)[C@@H]1CCCN1C(=O)[C@H](CC(C)C)NC(=O)CN)C(=O)N[C@@H](CC(C)C)C(=O)N[C@@H](Cc1c[nH]c2ccccc12)C(=O)N[C@H](C(=O)N[C@@H](CCCCN)C(=O)N[C@@H](CCCN=C(N)N)C(=O)N[C@@H](CCCCN)C(=O)N[C@@H](CCCN=C(N)N)C(=O)N[C@@H](CCC(N)=O)C(=O)N[C@@H](CCC(N)=O)C(N)=O)[C@@H](C)CC [GLPALILWIKRKRQQ]
MIC [6]: 0.352 µM (≈ 0.64 µg/mL)
MIC [4]: 44.9 µM (≈ 81.7 µg/mL)
MIC [5]: 0.769 µM (≈ 1.4 µg/mL)

CC[C@H](C)[C@H](N)C(=O)N[C@@H](CC(N)=O)C(=O)N[C@@H](CO)C(=O)N[C@@H](CC(C)C)C(=O)N[C@@H](CCCCN)C(=O)N[C@@H](CC(C)C)C(=O)NCC(=O)N[C@@H](CCCCN)C(=O)N[C@@H](CCCCN)C(=O)N[C@H](C(=O)N[C@@H](CC(C)C)C(=O)NCC(=O)N[C@@H](C)C(=O)N[C@@H](CC(C)C)C(N)=O)[C@@H](C)CC [INSLKLGKKILGAL]
MIC [6]: ≥ 100 µM
MIC [4]: > 100 µM

CC[C@H](C)[C@H](NC(=O)[C@H](CCCCN)NC(=O)[C@H](Cc1ccccc1)NC(=O)[C@@H](NC(=O)[C@H](C)NC(=O)[C@@H]1CCCN1)C(C)C)C(=O)N[C@@H](C)C(=O)N[C@@H](CO)C(=O)N[C@@H](CCCCN)C(=O)N[C@H](C(=O)N[C@H](C(=O)N1CCC[C@H]1C(=O)N[C@@H](CO)C(=O)N[C@H](C(=O)N[C@@H](Cc1ccc(O)cc1)C(=O)N[C@@H](CS)C(=O)N[C@@H](CCCCN)C(=O)N[C@H](C(=O)N[C@@H](CO)C(=O)N[C@@H](CCCN=C(N)N)C(=O)O)C(C)C)C(C)C)C(C)C)C(C)C [PAVFKIASKVVPSVYCKVSR]
MIC [3]: ≥ 118 µM
MIC [4]: 58.8 µM (≈ 128 µg/mL)

CC[C@H](C)[C@H](NC(=O)[C@H](C)NC(=O)[C@H](CCCN=C(N)N)NC(=O)[C@H](Cc1ccc(O)cc1)NC(=O)[C@H](CC(C)C)NC(=O)[C@H](CC(N)=O)NC(=O)[C@H](Cc1ccc(O)cc1)NC(=O)CNC(=O)[C@H](C)NC(=O)[C@@H](NC(=O)[C@@H](NC(=O)[C@@H](NC(=O)[C@H](CCCN=C(N)N)NC(=O)[C@@H](NC(=O)[C@@H](NC(=O)[C@@H](NC(=O)[C@@H]1CCCN1C(=O)[C@H](Cc1c[nH]c2ccccc12)NC(=O)[C@H](Cc1ccccc1)NC(=O)[C@H](CCCN=C(N)N)NC(=O)[C@H](CCCCN)NC(=O)[C@@H](NC(=O)[C@@H](N)CCCN=C(N)N)[C@@H](C)CC)C(C)C)C(C)C)[C@@H](C)CC)[C@@H](C)O)C(C)C)C(C)C)C(=O)N[C@@H](CCCCN)C(=O)O [RIKRFWPVVIRTVVAGYNLYRAIK]
MIC [6]: 1.61 µM (≈ 4.69 µg/mL)
MIC [7]: 0.201 µM (≈ 0.586 µg/mL)
MIC [8]: 0.803 µM (≈ 2.34 µg/mL)
MIC [9]: 2.41 µM (≈ 7.03 µg/mL)

CC(C)C[C@H](NC(=O)[C@H](C)NC(=O)[C@H](CC(C)C)NC(=O)[C@H](CCCCN)NC(=O)[C@H](C)NC(=O)[C@H](CC(C)C)NC(=O)[C@H](CCCCN)NC(=O)[C@H](CCCCN)NC(=O)[C@H](C)NC(=O)[C@H](CC(C)C)NC(=O)[C@H](CCCCN)NC(=O)[C@H](C)NC(=O)[C@H](CC(C)C)NC(=O)[C@H](CCCCN)NC(=O)[C@H](CCCCN)NC(=O)[C@H](C)NC(=O)[C@@H](N)C(C)C)C(N)=O [VAKKLAKLAKKLAKLAL]
MIC [1]: 8.3 µM (≈ 15 µg/mL)
MIC [2]: 2.77 µM (≈ 5 µg/mL)

CC[C@H](C)[C@H](NC(=O)[C@H](CCCCN)NC(=O)[C@H](CCCCN)NC(=O)[C@H](Cc1ccccc1)NC(=O)[C@H](CC(C)C)NC(=O)[C@H](CCCCN)NC(=O)[C@H](CCCCN)NC(=O)[C@@H](N)Cc1c[nH]c2ccccc12)C(=O)N[C@@H](CC(C)C)C(=O)N[C@@H](CCCCN)C(=O)N[C@@H](Cc1ccc(O)cc1)C(=O)N[C@@H](CC(C)C)C(N)=O [WKKLFKKILKYL]
MIC [10]: 2.98 µM (≈ 4.8 µg/mL)
MIC [8]: 0.746 µM (≈ 1.2 µg/mL)
MIC [11]: 2.11 µM (≈ 3.39 µg/mL)
MIC [12]: 1.49 µM (≈ 2.4 µg/mL)
